From publication PMC2999882 (Molecular pharmacology, 2008)
“And” between values parts separate entries of the source, which are not always exact repeats. Equal entries are not always repeated. Where two headings read alike, the source gives them in different places.

Assays:
[1] = target: rat brain membrane α7 sites; conditions: cited from earlier work
5HT3 receptors [2] = target: T1, 5HT3 receptors (Homo sapiens, UniProt P46098); conditions: cited from earlier work
T1 sequence (P46098 24-478): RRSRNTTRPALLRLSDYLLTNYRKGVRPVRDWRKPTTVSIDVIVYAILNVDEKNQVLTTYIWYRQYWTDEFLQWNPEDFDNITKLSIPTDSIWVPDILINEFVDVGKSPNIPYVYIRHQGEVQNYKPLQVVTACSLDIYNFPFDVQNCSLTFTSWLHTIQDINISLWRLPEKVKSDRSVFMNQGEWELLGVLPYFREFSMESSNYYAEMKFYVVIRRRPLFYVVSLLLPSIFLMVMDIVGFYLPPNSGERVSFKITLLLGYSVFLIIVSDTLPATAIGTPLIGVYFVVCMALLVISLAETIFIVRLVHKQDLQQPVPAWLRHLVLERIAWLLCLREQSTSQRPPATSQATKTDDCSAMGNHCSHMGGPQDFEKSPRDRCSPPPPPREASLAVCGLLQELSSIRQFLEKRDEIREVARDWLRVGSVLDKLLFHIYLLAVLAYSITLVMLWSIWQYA

α7 nAChR [3] = conditions: cited from earlier work
other nAChR tested = conditions: cited from earlier work
rat α7 nAChR = conditions: X. laevis oocytes; ref Papke et al., 2005b; cited from earlier work
5HT3 receptors [4] = target: T1, 5HT3 receptors; format: cell-based; conditions: 100 µM; normalized to maximal serotonin response; detection threshold 5%
α4β2 nAChR [5] = target: T2, α4β2 nAChR (Homo sapiens, UniProt P17787+P43681); experiment: cell-based; format: cell-based
α4β2 nAChR [6] = target: T2, α4β2 nAChR; format: cell-based; conditions: 100 µM coapplied with 30 µM ACh
5HT3 receptors [7] = target: T1, 5HT3 receptors; format: cell-based; conditions: 100 µM coapplied with 10 µM serotonin
[8] = target: T3, muscle type (α1β1εδ) nAChR (Homo sapiens, UniProt P02708+Q04844+Q07001); format: cell-based; conditions: 100 µM; normalized to ACh maximum; detection threshold 0.5%
α9 nAChR = conditions: ref Papke et al., 1996; Verbitsky et al., 2000; cited from earlier work
α3β4 nAChR = α3β4 nAChR (Homo sapiens, UniProt P30926+P32297)
[9] = target: T3, muscle type (α1β1εδ) nAChR; format: cell-based; conditions: 100 µM coapplied with 3 µM ACh
α7 nAChR [10] = target: α7 nAChR (Homo sapiens, UniProt P36544)
human α7 = conditions: cited from earlier work
5HT3 receptors [11] = target: T1, 5HT3 receptors; conditions: cited from earlier work; remark: listed apart in the source

Chain of α7 nAChR (Homo sapiens, UniProt P36544) (P36544 23-502): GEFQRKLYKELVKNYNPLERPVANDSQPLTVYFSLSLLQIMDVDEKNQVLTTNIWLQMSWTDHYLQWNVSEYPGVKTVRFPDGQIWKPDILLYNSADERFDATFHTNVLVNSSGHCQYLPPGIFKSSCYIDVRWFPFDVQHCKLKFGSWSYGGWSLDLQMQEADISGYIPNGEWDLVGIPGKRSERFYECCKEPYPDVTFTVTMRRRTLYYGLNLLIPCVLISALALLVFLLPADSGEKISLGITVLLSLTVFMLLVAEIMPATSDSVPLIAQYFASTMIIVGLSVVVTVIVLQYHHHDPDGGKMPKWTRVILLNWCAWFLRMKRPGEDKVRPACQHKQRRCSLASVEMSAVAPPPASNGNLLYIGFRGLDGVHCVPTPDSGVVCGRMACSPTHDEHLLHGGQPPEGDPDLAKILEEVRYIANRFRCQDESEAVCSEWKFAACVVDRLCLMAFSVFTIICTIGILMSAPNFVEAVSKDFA
T2 sequence (P43681 29-627 limits assumed): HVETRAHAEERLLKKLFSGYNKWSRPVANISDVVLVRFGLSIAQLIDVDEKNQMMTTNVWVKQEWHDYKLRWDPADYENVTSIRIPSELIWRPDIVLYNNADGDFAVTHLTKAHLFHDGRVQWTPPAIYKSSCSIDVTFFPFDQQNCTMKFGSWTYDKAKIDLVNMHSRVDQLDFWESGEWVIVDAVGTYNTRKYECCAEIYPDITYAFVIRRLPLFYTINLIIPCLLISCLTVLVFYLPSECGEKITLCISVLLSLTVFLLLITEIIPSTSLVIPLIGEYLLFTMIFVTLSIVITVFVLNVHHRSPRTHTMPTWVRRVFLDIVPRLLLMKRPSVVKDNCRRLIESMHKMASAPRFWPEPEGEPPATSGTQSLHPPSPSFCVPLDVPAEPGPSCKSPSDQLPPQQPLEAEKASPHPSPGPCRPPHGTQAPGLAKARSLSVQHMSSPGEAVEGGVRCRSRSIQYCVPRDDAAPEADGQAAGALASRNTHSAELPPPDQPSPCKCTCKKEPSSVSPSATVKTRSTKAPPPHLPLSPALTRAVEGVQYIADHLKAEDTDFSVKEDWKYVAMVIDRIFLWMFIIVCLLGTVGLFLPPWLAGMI
T2 sequence (P17787 26-502): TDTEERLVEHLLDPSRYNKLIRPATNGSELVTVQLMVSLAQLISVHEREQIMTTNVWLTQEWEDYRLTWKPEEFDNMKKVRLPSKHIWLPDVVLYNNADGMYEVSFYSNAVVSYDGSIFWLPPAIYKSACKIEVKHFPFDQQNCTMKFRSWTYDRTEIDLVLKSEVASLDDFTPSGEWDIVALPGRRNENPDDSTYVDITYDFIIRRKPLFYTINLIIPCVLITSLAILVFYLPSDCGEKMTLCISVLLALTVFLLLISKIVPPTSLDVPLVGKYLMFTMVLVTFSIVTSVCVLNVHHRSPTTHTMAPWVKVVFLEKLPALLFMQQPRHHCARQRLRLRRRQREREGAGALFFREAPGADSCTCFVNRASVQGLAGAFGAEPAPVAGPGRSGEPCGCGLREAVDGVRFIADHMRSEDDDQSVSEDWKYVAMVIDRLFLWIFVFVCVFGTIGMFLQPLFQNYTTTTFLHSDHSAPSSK
T3 sequence (P02708 21-457): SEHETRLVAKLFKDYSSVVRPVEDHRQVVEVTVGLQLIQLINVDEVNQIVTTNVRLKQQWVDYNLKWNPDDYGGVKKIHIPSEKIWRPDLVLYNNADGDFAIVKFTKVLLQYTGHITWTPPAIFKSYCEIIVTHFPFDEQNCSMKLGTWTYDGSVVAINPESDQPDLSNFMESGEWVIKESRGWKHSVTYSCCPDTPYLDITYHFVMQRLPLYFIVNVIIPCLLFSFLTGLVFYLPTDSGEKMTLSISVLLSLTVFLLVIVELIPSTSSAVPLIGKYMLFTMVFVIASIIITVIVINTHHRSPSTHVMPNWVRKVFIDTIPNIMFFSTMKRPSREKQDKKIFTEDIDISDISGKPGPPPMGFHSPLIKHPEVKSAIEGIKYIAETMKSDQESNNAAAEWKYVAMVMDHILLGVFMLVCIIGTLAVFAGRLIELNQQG
T3 sequence (P11230 24-501 partner): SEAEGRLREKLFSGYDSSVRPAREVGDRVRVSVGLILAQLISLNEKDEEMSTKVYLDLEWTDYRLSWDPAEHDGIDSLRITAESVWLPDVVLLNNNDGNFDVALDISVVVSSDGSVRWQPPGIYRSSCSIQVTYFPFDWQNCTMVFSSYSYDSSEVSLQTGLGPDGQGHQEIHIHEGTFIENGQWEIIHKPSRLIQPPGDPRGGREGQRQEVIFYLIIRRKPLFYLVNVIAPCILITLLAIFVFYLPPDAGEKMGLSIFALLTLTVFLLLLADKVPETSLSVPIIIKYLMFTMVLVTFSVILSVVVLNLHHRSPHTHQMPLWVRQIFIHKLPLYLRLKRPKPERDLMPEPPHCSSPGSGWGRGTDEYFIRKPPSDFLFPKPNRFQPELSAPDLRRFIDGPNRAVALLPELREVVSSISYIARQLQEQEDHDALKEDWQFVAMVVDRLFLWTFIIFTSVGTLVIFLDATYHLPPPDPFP
T3 sequence (Q04844 21-493): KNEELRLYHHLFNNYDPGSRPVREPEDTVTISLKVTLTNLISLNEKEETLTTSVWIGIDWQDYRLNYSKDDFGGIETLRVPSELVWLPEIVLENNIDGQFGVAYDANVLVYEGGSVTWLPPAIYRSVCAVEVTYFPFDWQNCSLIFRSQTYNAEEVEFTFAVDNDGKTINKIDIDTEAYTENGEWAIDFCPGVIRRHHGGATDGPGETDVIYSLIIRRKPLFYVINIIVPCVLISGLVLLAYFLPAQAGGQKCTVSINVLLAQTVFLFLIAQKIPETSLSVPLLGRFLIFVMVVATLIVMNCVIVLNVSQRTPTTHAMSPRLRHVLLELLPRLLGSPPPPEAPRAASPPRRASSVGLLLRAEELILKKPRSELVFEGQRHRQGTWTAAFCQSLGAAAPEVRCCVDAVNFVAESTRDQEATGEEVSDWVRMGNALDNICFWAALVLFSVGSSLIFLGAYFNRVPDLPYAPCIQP
T3 sequence (Q07001 22-517): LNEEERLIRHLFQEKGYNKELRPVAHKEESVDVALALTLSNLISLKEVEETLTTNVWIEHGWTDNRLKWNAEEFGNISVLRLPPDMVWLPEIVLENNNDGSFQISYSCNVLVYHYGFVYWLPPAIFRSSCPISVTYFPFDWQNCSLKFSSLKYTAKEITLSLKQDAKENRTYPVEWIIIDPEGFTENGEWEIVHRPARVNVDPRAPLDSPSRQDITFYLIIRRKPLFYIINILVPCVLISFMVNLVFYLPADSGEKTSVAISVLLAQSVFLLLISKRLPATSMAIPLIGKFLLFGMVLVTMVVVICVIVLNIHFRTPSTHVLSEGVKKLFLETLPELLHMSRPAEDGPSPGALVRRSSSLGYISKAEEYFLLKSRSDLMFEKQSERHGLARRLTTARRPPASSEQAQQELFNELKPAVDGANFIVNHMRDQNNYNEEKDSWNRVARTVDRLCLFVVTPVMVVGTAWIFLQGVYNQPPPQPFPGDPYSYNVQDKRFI
Chain of α3β4 nAChR (P32297 32-505): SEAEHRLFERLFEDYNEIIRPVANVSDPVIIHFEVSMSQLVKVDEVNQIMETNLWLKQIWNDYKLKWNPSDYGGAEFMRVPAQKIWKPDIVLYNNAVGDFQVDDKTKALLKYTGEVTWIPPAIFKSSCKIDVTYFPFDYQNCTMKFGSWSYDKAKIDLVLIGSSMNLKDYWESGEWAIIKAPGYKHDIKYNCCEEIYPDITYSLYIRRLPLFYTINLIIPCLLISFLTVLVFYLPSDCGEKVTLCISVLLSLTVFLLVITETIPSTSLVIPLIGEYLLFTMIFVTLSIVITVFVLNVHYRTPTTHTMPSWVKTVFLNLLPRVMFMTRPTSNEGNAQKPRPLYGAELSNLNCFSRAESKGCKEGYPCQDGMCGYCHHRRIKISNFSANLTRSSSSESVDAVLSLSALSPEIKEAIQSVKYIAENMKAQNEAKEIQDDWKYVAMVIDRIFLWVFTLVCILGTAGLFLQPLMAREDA
Chain of α3β4 nAChR (P30926 22-498): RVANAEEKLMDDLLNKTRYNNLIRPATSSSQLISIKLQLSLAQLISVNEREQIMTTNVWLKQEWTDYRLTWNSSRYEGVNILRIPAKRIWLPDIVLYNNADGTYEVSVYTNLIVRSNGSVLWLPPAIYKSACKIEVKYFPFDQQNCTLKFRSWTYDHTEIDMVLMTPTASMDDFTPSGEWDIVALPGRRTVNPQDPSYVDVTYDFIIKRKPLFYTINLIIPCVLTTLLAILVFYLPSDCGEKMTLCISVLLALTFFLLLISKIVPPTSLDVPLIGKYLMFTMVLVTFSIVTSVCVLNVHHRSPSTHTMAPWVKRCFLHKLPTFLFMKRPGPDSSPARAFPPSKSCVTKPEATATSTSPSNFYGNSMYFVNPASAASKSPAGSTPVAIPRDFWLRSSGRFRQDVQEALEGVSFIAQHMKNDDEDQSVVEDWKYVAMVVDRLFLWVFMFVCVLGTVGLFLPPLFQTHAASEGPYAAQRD

O=C(N[C@H]1CN2CCC1CC2)c1ccc(Cl)cc1 [PNU-282987]
Ki ([1]; read-out: Ki, displacement of MLA binding from rat brain homogenates): 0.027 µM | IC50 (5HT3 receptors [2]; read-out: IC50 5HT3 receptors (functional antagonist)): ~5 µM

C[C@H](OC(=O)N[C@@H]1CN2CCC1CC2)c1ccccc1F [JN403]
α7 efficacy, % of that of ACh (α7 nAChR [3]): In the X. laevis oocyte experiments, JN403 was a relatively potent partial agonist, with an efficacy of approximately 50% of that of ACh. 5HT3 receptors and other nAChRs were evaluated with calcium flux measurements in transfected cells, and JN403 was antagonist in these experiments. | activity at 5HT3 receptors and other nAChRs (Summary) (other nAChR tested): In the X. laevis oocyte experiments, JN403 was a relatively potent partial agonist, with an efficacy of approximately 50% of that of ACh. 5HT3 receptors and other nAChRs were evaluated with calcium flux measurements in transfected cells, and JN403 was antagonist in these experiments. | IC50 (5HT3 receptors [2]; read-out: IC50 5HT3 receptors (antagonist)): ~20 µM

cis-1-methyl-2,3,3a,4,5,9b,-hexahydro-1H-pyrrolo[2,3-f]quinoline [ACME]
Imax, % of that of ACh, rat α7 nAChR (rat α7 nAChR): The rigid nicotine analogs ACME and ACME-B were partial agonists for rat α7 nAChR (Imax, 10 and 20% of that of ACh, respectively). ACME-B was 2-fold more potent (EC50 ≈ 26 µM) than the boron-free form ACME. Potential antagonist activity of non-α7 nAChR not investigated.

c1cncc(C2CCC3CCN2CC3)c1 (stereo not shown) [TC-1698, 2-(3-pyridyl)-1-azabicyclo[3.2.2]nonane]
agonist character at α7 (Summary) (α7 nAChR [3]): A potent full agonist for α7 nAChR with negligible activation of the heteromeric neuronal nAChR tested but with low-potency partial agonist activity for muscle nAChR. Effective competitive antagonist at α4β2 nAChR. | activation of the heteromeric neuronal nAChR tested (Summary) (other nAChR tested): A potent full agonist for α7 nAChR with negligible activation of the heteromeric neuronal nAChR tested but with low-potency partial agonist activity for muscle nAChR. Effective competitive antagonist at α4β2 nAChR. | activity at α4β2 nAChR (Summary) (other nAChR tested): A potent full agonist for α7 nAChR with negligible activation of the heteromeric neuronal nAChR tested but with low-potency partial agonist activity for muscle nAChR. Effective competitive antagonist at α4β2 nAChR. | activity for muscle nAChR (Summary) (other nAChR tested): A potent full agonist for α7 nAChR with negligible activation of the heteromeric neuronal nAChR tested but with low-potency partial agonist activity for muscle nAChR. Effective competitive antagonist at α4β2 nAChR.

C[N+](C)(C)CCO [Choline, choline, reference compound]
potency for α7, fold lower than that of ACh (α7 nAChR [3]): 10 fold | 5HT3 Activity (5HT3 receptors [4]): N | α4β2 Activity (α4β2 nAChR [5]; 100 µM, normalized to ACh maximum, detection threshold 1%): ≈1% | α4β2 response, % of the ACh maximum (α4β2 nAChR [5]; 3 mM agonist): 2.3 ± 0.3% and 2% | activity at heteromeric nAChR (Summary) (other nAChR tested; ref Papke et al., 1996, Verbitsky et al., 2000): little or no activity | α4β2 Inhibition (α4β2 nAChR [6]): N.S. | 5HT3 Inhibition (5HT3 receptors [7]): N.S. | α1β1εδ Activity [8]: N | activity at α9 nAChR (Summary) (α9 nAChR): agonist | agonist character at α3β4 (α3β4 nAChR): too low to be characterized in regard to potency | α3β4 Imax (α3β4 nAChR; peak current, relative to ACh maximum (ACh constrained to 1)): 0.04 ± 0.01 | α1β1εδ Inhibition [9]: N.S. | EC50 (α7 nAChR [10]): 243 ± 8 µM | α7 Imax (α7 nAChR [10]): 0.90 ± 0.1 | α7 potency, fold less potent than ACh (α7 nAChR [10]): approximately 10 fold | α7 potency, fold lower than related agonists that lack the oxygen group (e.g., ETMA and QN) (α7 nAChR [10]): at least 10 fold

COc1ccccc1-c1cccc2cc(C(=O)N[C@H]3CN4CCC3CC4)oc12 [ABBF, N-[(3R)-1-azabicyclo[2.2.2]oct-3-yl]-7-[2-(methoxy)phenyl]-1-benzofuran-2-carboxamide]
agonist character at human α7 (Summary) (human α7): Putative full agonist for human α7 (EC50 ≈ 3 µM) and an antagonist for other nAChR tested (IC50 values of 1–8 µM). Mechanism of antagonism not investigated. Bound to 5HT3 receptors with high affinity (60 nM), comparable with rat brain membrane α7 sites (62 nM). | EC50 (human α7; read-out: EC50 human α7): ~3 µM | affinity for rat brain membrane α7 sites [1]: Putative full agonist for human α7 (EC50 ≈ 3 µM) and an antagonist for other nAChR tested (IC50 values of 1–8 µM). Mechanism of antagonism not investigated. Bound to 5HT3 receptors with high affinity (60 nM), comparable with rat brain membrane α7 sites (62 nM). | affinity for 5HT3 receptors (5HT3 receptors [11]): Putative full agonist for human α7 (EC50 ≈ 3 µM) and an antagonist for other nAChR tested (IC50 values of 1–8 µM). Mechanism of antagonism not investigated. Bound to 5HT3 receptors with high affinity (60 nM), comparable with rat brain membrane α7 sites (62 nM). | Effects on 5HT3 Receptors (5HT3 receptors [2]): Antagonist
